Experimental data as given in patent US7943606B2, “Compositions and methods to control abnormal cell growth” (CanCure Laboratories, LLC, priority 2005, dated 2011).
Like-named read-outs stand apart in the source and are kept apart here.

Legend:
[1] = Viability of MRC-5 normal lung fibroblasts (MTT assay); assay type: cell-based; details: human
Procedure: (§1) To quantify cell death, around the time when significant and characteristic morphological changes took place, cells were pulse-labeled for 10 minutes with [^3H]thymidine to measure DNA activity as described elsewhere [Tomono, M. and Kiss, Z. (1995), “Ethanol enhances the stimulatory effects of insulin and insulin-like growth factor-I on DNA synthesis in NIH 3T3 fibroblasts,” Biochem. Biophys. Res. Commun. 208, 63-67]. Also, cells were collected as suspensions using trypsin, an established method in cell biology, followed by re-plating of cells in fresh tissue culture medium. If no viable cells were obtained after one week in culture, it meant that the cells at the time of re-plating were dead. Survival values obtained with untreated cells were considered 100%. For the determination of relative number of viable cells after treatments, in most cases the MTT assay was used. This calorimetric assay is based on the ability of living cells, but not dead cells, to reduce 3-(4,5-dimethyl thiazol-2-yl)-2,5-diphenyltetrazolium bromide [Carmichael, J, De Graff, W. G., Gazdar, A. F., Minna, J. D. and Mitchell, J. B. (1987), “Evaluation of tetrazolium-based semi-automated calorimetric assay: Assessment of chemosensitivity testing,” Cancer Res. 47, 936-942]. For this assay, cells were plated in 96-well plates, and the MTT assay was performed both in untreated and treated cell cultures. The MTT assay also was performed at the start of treatments to allow assessment of proliferation rates in the control and treated cell cultures.
(§2) The MRC-5 cell line is derived from normal lung tissue of a […] fetus. MRC-5 cells were maintained and treated in Eagles Medium with Hanks' BSS containing 10% fetal bovine serum. The T47D cells were maintained and treated in RPMI 1640 medium supplemented with 0.2 IU bovine insulin and 10% fetal bovine serum. The CaOV-3 human ovarian cancer cells were cultured in Dulbecco's modified Eagle's medium containing 10% fetal bovine serum. The cells were seeded in 96-well plates either at 10,000 cells per well or 30,000 cells per well to examine the antiproliferative and cytotoxic effects of various CC compounds, respectively. The cells were incubated for 24 hours, then the medium was changed followed by the treatments of cultures 2 hours after the medium change. At this point, cell cultures seeded at 10,000 cells per well and 30,000 cells per well were 25-35% and 80-90% confluent, respectively. Incubations were continued for 72 hours followed by the MTT assay. The data, shown in TABLE 2, indicate the inhibitory concentrations of CC compounds (IC50) required for 50% decrease in the number of viable cells. These numbers are calculated from the mean of 4 incubations in one experiment (the experiment was repeated once with similar results).

MRC-5 cells = assay: as above; assay type: cell-based; details: Homo sapiens, MRC5; 10,000 cells per well (25-35% confluent), 72 hours, MTT; read-out: IC50 values, Antiproliferative, MRC-5
Procedure: as §1, §2

T47D cells = assay: Viability of T47D breast cancer cells; assay type: cell-based, human; details: Homo sapiens, T47D, 72 hours, MTT
Procedure: as §1
About 40% confluent cultures of T47D cells, cultured in 12-well plates in RPMI 1640 medium supplemented with 0.2 IU bovine insulin and 10% FBS, were either untreated (FIG. 4A), or were treated with 100 μM CCDTHT (CCompound3) for 72 hours (FIG. 4B).
(§3) NIH3T3, T47D, A-431, HT-29, and MEL-28 cells were cultured as indicated earlier. CaOV-3 human ovarian cancer cells were cultured in DMEM containing 10% FBS. ZR-75-1 human estrogen receptor-positive breast cancer cells were maintained in RPMI 1640 medium supplemented with 10% FBS. HTB-157 human fetal fibroblasts, MEL-24 human malignant melanoma cells, Hep G2 human hepatoblastoma cells, and CaCO-2 human colon adenocarcinoma cells were maintained in Eagles's MEM containing 10% FBS. MB-231 human estrogen receptor-negative breast cancer cells were maintained in Leibovitz's L-15 medium supplemented with 10% FBS. Cells were seeded into 96-well plates and treated at ˜70-90% confluency. Two hours prior to treatments the medium was changed for fresh 10% serum medium, and then the cells were incubated for 10 days in the absence (□) or presence of 50 μM CCDTHT ? or 100 μM CCDTHT (▪). The medium was changed and the cells were re-treated on days 3 and 6. The MTT assay was used to determine cell viability on day 10. The data, shown in FIG. 6, are the mean±std. dev. of 8 incubations in one experiment.
as §2, with “respectively.” for “respectively. Incubations were continued for 72 hours followed by the MTT assay. The data, shown in TABLE 2, indicate the inhibitory concentrations of CC compounds (IC50) required for 50% decrease in the number of viable cells. These numbers are calculated from the mean of 4 incubations in one experiment (the experiment was repeated once with similar results).”

CaOV-3 cells = assay: Viability of CaOV-3 ovarian cancer cells (MTT assay); assay type: cell-based, human; details: Homo sapiens, Caov-3, 72 hours, MTT
Procedure: as §1
as §3, with “experiment. (The experiment was repeated twice with similar results).” for “experiment.”
as §2, with “results). […]” for “results).”

MCF-7 cells = assay: Viability of MCF-7 breast cancer cells; assay type: cell-based, human; details: 2 mM Etn + 100 μM CCDTHT, 72 hours, MTT
Procedure: as §1
About 50% confluent cultures of MCF-7 cells, cultured in 12-well plates in Dulbecco's modified Eagle's medium (DMEM) supplemented with 10% FBS, were either untreated (FIG. 3A), or were treated with 100 μM CCDTHT (CCompound3) for 72 hours (FIG. 3B). […] This experiment was repeated three times with similar results. In some experiments, cells from the CCDTHT-treated cultures were seeded into 96-well plates, and the MTT assay was performed 96 hours later to test for viable cells.
The NIH 3T3 (normal) mouse fibroblast, A431 human epidermoid adenocarcinoma, and MCF-7 human breast cancer cells were cultured in DMEM medium containing 10% FBS. The MEL-28 human melanoma cells were cultured in MEM medium containing 10% FBS. The HT-29 human colon adenocarcinoma cells were cultured in McCoy's 5a medium containing 10% FBS. The A549 human lung carcinoma cells were maintained in Ham's F12K medium containing 10% FBS. Cells were seeded into 96-well plates and treated at ˜70-90% confluency. Two hours before treatments the medium was changed for fresh 10% serum medium, and then the cells were incubated for 72 hours in the presence of 0-200 μM of CCompound1 (●) or CCompound3 (CCDTHT) (▴), as indicated. The MTT assay was used to determine cell viability after treatments. The values, shown in FIGS. 5A-5F and expressed as percent decrease in viability compared to the untreated control cells, are the mean±std. dev. of 8 incubations in one experiment. Similar results were obtained in another experiment.
NIH 3T3, AN3CA, HT-29, MEL-28, and MCF-7 cells were cultured as described earlier. Cells were seeded into 96-well plates; when cells were ˜80-90% confluent, the medium was changed for fresh 10% serum-containing medium, followed by incubations for 72 hours in the absence (□) or presence of 100 μM CCDTHT ? , 2 mM ethanolamine (Etn) ? , or 100 μM CCDTHT+2 mM Etn (▪). The MTT assay was used to determine cell viability. […]

[2] = MRC-5 normal lung fibroblasts, 30,000 cells per well (80-90% confluent), 72 hours, MTT, read-out: IC50 values, Cytotoxic, MRC-5
[3] = 10,000 cells per well (25-35% confluent), read-out: IC50 values, Antiproliferative, T47D
[4] = 30,000 cells per well (80-90% confluent), read-out: IC50 values, Cytotoxic, T47D
[5] = 10,000 cells per well (25-35% confluent), read-out: IC50 values, Antiproliferative, CaOV-3
[6] = 30,000 cells per well (80-90% confluent), read-out: IC50 values, Cytotoxic, CaOV-3

IC50 (T47D cells; [3]) | IC50 (CaOV-3 cells; [5]) | Structure (SMILES) | IC50 at 72 h [1, 2] | IC50 (MRC-5 cells) | IC50 (T47D cells; [4]) | IC50 (CaOV-3 cells; [6]) | IC50 at 72 h [1] | effect of Etn on CCDTHT-induced reduction in cell viability, MCF-7 (MCF-7 cells)
56 µM | 69 µM | C=CC[N+](C)(C)CC/C=C1/c2ccccc2Sc2ccc(C)cc21 [CCcompound24, N,N-Dimethyl-N-allyl-3-(2-methyl-9H-thioxanthen-9-ylidene)-propane-1-aminium bromide] |  | 113 µM | 59 µM | 29 µM | 207 µM | 
76 µM | 32 µM | Cc1ccc2c(c1)/C(=C\CC[N+](C)(C)C)c1ccccc1S2 [CCcompound21, N,N,N-trimethyl-3-(2-methyl-9H-thioxanthen-9-ylidene)-propane-1-aminium iodide] | 164 µM | 113 µM | 59 µM | 29 µM |  | 
65 µM | 61 µM | CC[N+](C)(C)CC/C=C1/c2ccccc2Sc2ccc(C)cc21 [CCcompound22, N,N-Dimethyl-N-ethyl-3-(2-methyl-9H-thioxanthen-9-ylidene)-propane-1-aminium iodide] | 215 µM | 140 µM | 65 µM | 36 µM |  | 

The next lines start with the compound.

Structure (SMILES) | IC50 (T47D cells; [3]) | IC50 (CaOV-3 cells; [5]) | IC50 at 72 h [1, 2] | IC50 (MRC-5 cells) | IC50 (T47D cells; [4]) | IC50 (CaOV-3 cells; [6]) | IC50 at 72 h [1] | effect of Etn on CCDTHT-induced reduction in cell viability, MCF-7 (MCF-7 cells)
CC[N+](CC)(CC)CC/C=C1/c2ccccc2Sc2ccc(C)cc21 [CCcompound25, N,N,N-triethyl-3-(2-methyl-9H-thioxanthen-9-ylidene)-propane-1-aminium-iodide] | 18 µM | 47 µM | 123 µM | 118 µM | 39 µM | 66 µM |  | 
CC[N+](C)(CC)CC/C=C1/c2ccccc2Sc2ccc(C)cc21 [CCcompound23, N,N-Diethyl-N-methyl-3-(2-methyl-9H-thioxanthen-9-ylidene)-propane-1-aminium iodide] | 48 µM | 14 µM | 163 µM | 139 µM | 38 µM | 32 µM |  | 
C=CC[N+](CC)(CC)CC/C=C1/c2ccccc2Sc2ccc(C)cc21.[Br-] [CCcompound26, N,N-diethyl-N-allyl-3-(2-methyl-9H-thioxanthen-9-ylidene)-propane-1-aminium-bromide] | 11 µM | 57 µM |  | 86 µM | 8 µM | 59 µM | 98 µM | 
NCCO [Etn, ethanolamine, reference compound] |  |  |  |  |  |  |  | clearly prevented
